Like-named read-outs stand apart in the source and are kept apart here.
Experiments:
hCES1A [1] = biological target: T1, hCES1A (Homo sapiens, UniProt P23141); experiment: Inhibition assay on hCES1A (bioluminogenic substrate NLMe); assay type: biochemical; settings: for IC50: mean ± SD, n = 3; for hCES1A IC50 Fold Increase: ratio of IC50 at 3 min to IC50 at 33 min
T1 sequence (P23141 18-567): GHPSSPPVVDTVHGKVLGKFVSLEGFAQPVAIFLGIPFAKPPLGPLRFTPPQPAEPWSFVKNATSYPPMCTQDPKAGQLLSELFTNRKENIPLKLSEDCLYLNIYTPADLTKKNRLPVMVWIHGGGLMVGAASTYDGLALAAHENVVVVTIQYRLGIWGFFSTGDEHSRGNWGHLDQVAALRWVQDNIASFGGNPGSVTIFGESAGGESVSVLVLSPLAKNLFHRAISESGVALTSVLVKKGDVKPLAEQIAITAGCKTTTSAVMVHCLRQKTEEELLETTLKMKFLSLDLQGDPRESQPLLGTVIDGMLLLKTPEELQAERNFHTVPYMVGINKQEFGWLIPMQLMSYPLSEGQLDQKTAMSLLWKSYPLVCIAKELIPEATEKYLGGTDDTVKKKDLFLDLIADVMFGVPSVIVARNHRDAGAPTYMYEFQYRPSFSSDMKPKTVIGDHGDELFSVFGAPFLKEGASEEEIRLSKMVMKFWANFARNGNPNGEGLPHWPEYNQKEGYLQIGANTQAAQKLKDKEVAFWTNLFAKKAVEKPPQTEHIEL
Experimental: In this study, a known bioluminogenic probe substrate NLMe was used for human carboxylesterase 1 (hCES1A) inhibition assays. ([Wang et al., 2020]). In brief, the incubation mixture (0.1 mL) consisted of 0.1 M buffer PBS (PH 6.5), hCES1A (0.1 μg/mL, final concentration) and each test compound. […] After 20 min incubation, equal volume of LDR was added to stop reaction. The luminescence signals were monitored in the microplate reader (SpectraMax iD3Molecular Devices, Austria). […]
(§1) The household library of covalent fragments including D and F was from Organic Chemistry […]
(§2) Fig. S1. Partial fragment molecules of a household library targeting to serine. […]
Inhibition assay on hCES1A
In this study, a known bioluminogenic probe substrate NLMe was used for human carboxylesterase 1 (hCES1A) inhibition assays. 2 In brief, the incubation mixture (0.1 mL) consisted of 0.1 M buffer PBS (PH 6.5), hCES1A (0.1 μg/mL, final concentration) and each test compound. […]
After 20 min incubation, equal volume of LDR was added to stop reaction.

hCES1A [2] = biological target: T1, hCES1A; experiment: Co-crystallography with hCES1A; assay type: binding; settings: 1:5 molar ratio
Experimental: Purified hCES1A incubated with F-3 and F-4 at 1:5 M ratio for 1 h at 18°C. Crystallisation screening was performed using commercially available kit sets using sitting drop vapor diffusion at 16°C. Both diffraction-quality crystals were obtained from the condition containing 14.4% peg8000 (w/v), 0.1M MES 6.4, 0.3M CaAc and 20% glycerol. Crystals were flash cooled in liquid nitrogen after cryoprotection in 25% glycerin. Date was collected on 02U1 at Shanghai Synchrotron Radiation Facility (SSRF). Data images were processed using program HKL2000. ([Otwinowski and Minor, 1997]). Crystal structures were solved using molecular replacement with the Phenix software suite using unbound hces1a (Protein Data Bank [PDB] accession number 1MX1 as the search model. Structure refinement was performed using Phenix. ([Adams et al., 2010]). The program COOT was used for manual rebuilding. ([Emsley and Cowtan, 2004]). Molecular graphics images were generated using CCP4MG. ([McNicholas et al., 2011]). […]
fluorogenic probe. 4 Briefly, the incubation mixtures (0.1 mL) contained Tris-HCl buffer, hPL solution (0.25 μg/mL, final concentration), porcine bile salt (0.1 mg/mL, final concentration) and each inhibitor (with different concentrations). […] The fluorescent signals of hydrolytic product were quantified by using the microplate reader (Spectra Max M4, Austria), with the wavelength of 600 nm and 660 nm for excitation and emission, respectively. […]
OPTS, a known fluorogenic probe, was used as the substrate to assess the residual activities of Notum in the presence of each tested compound. […] After preincubated at 37 °C for 1 min, OPTS was added to initiate the hydrolytic reaction and the multi-mode microplate reader (SpectraMax iD3, Molecular Devices, Austria) was used to analyze the florescence signals of the […]
The F-3, F-4, F-10-bound peptides was analysed using the nanoLC-MS/MS system, respectively.6 The purified hCES1A (150 μg, final content) was co-incubated with the small molecule inhibitor F-3/ F-4/ F-10 (100 μM, final concentration) at 4 °C and 25 °C, respectively, for 4h. […]

hCES2A = biological target: T2, hCES2A (Homo sapiens, UniProt O00748); experiment: Inhibition assay on hCES2A (fluorescent substrate FD); assay type: biochemical; settings: mean ± SD, n = 3
T2 sequence (O00748 27-559): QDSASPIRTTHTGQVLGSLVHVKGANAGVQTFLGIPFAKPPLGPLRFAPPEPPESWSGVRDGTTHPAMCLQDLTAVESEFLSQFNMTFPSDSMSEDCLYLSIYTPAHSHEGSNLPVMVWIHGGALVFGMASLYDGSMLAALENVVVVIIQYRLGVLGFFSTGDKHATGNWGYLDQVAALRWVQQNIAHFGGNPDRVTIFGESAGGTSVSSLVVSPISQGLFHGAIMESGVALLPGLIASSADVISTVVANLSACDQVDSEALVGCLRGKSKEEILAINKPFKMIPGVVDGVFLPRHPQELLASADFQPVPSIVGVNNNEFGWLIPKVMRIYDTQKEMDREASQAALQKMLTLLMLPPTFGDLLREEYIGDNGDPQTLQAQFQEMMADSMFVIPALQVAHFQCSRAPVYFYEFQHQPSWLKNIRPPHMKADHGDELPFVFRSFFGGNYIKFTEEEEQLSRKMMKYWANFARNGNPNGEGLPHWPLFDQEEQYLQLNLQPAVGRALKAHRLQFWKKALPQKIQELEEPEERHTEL
Experimental: 1. Detailed experimental, materials, and methods
as §1, §2
Inhibition assay on hCES2A
Human carboxylesterase 2 (hCES2A) inhibition assays were conducted using FD, a known fluorescent substrate. 3 Briefly, hCES2A (0.4 μg/mL, final concentration) was preincubated with analytes/DMSO (as a control group) in PBS (pH 7.4) at 37 °C for 3 min. This was followed by adding the substrate FD (4 μM, final concentration) in the incubation mixture and allowing it to react for 30 min. The fluorescent signals (excitation/emission, 480 nm/525 nm) were continuously recorded by a microplate reader (SpectraMax iD3Molecular Devices, Austria). […]

[3] = 3 min incubation, read-out: hCES1A IC50 3 min
[4] = 33 min incubation, read-out: hCES1A IC50 33 min
[5] = 3 min incubation, read-out: hCES2A IC50 3 min
[6] = 33 min incubation, read-out: hCES2A IC50 33 min

Row | IC50 (hCES1A [1]; [3]) | IC50 (hCES1A [1]; [4]) | hCES1A IC50 Fold Increase (hCES1A [1]) | IC50 (hCES2A; [5]) | IC50 (hCES2A; [6]) | SMILES | covalent binding mode at the catalytic triad (Ser221) in co-crystal (hCES1A [2])
1 | 17 ± 3 nM | 1.7 ± 0.5 nM | 10.0 | – | – | O=C(c1cccc(Br)c1)C(F)(F)F [Compound F-5] | –
2 | 10 ± 1.4 nM | 2.4 ± 0.4 nM | 4.2 | – | – | O=C(c1ccc(Cl)c(Cl)c1)C(F)(F)F [Compound F-4] | forming an expected hemiacetal covalent bond
3 | 9.9 ± 1.01 nM | 52.8 ± 15.9 nM | 0.2 | – | – | O=C(c1ccccc1Br)C(F)(F)F [Compound F-6] | –
4 | 37.7 ± 8.6 nM | 6.2 ± 1.1 nM | 6.1 | – | – | O=C(c1ccc(I)cc1)C(F)(F)F [Compound F-9] | –
5 | 1700 nM | 603 ± 107 nM | 2.8 | – | – | O=C(c1ccc(F)cc1)C(F)(F)F [Compound F-8] | –
6 | 34.1 ± 5.3 nM | 2.5 ± 0.4 nM | 13.6 | 76.8 ± 10.9 nM | 90 ± 21 nM | O=C(c1cccc(Cl)c1)C(F)(F)F [Compound F-2] | –
7 | 16.1 ± 2.3 nM | 2.1 ± 0.6 nM | 7.7 | – | – | O=C(c1ccc(Br)cc1)C(F)(F)F [Compound F-7] | –
8 | 11.6 ± 0.7 nM | 2.3 ± 0.4 nM | 5.0 | 102 ± 20.6 nM | 85.6 ± 36 nM | O=C(c1ccccc1Cl)C(F)(F)F [Compound F-3] | promising covalent binding modes

The remaining lines, values behind:

Row | SMILES | IC50 (hCES1A [1]; [3]) | IC50 (hCES1A [1]; [4]) | hCES1A IC50 Fold Increase (hCES1A [1]) | IC50 (hCES2A; [5]) | IC50 (hCES2A; [6]) | covalent binding mode at the catalytic triad (Ser221) in co-crystal (hCES1A [2])
9 | O=C(c1ccc(C(F)(F)F)cc1)C(F)(F)F [Compound F-11] | > 2000 nM | > 2000 nM | – | – | – | –
10 | COc1ccc(C(=O)C(F)(F)F)cc1 [Compound F-14] | 30.2 ± 12.1 nM | 29.7 ± 20.7 nM | – | – | – | –
11 | O=C(c1ccc(Cl)cc1)C(F)(F)F [Compound F-1] | 14.4 ± 1.9 nM | 1.9 ± 0.2 nM | 7.6 | 59.1 ± 9.8 nM | 71.3 ± 19.4 nM | –
12 | Nc1ccc(C(=O)C(F)(F)F)cc1 [Compound F-12] | 470 ± 120 nM | 670 ± 130 nM | – | – | – | –
13 | CCc1ccc(C(=O)C(F)(F)F)cc1 [Compound F-15] | 18.7 ± 4.2 nM | 23.8 ± 12.4 nM | – | – | – | –
14 | O=C(CF)c1ccc(Cl)cc1 [Compound F1-2] | 1210 nM | 874 ± 92.2 nM | 1.4 | – | – | –
15 | O=C(c1cc(Cl)c(Cl)c(Cl)c1)C(F)(F)F [Compound F-10] | 30 ± 4.5 nM | 2.8 ± 0.4 nM | 10.7 | – | – | –
16 | O=C(c1ccc(Cl)cc1)C(F)F [Compound F1-1] | 58 ± 6 nM | 102 ± 37.4 nM | 0.6 | – | – | –
